Structures are written as SMILES.

The source of these data is publication PMC10683482, “Offsetting Low-Affinity Carbohydrate Binding with Covalency to Engage Sugar-Specific Proteins for Tumor-Immune Proximity Induction” (ACS Central Science, 2023).

The test has as its system human serum antirhamnose antibody (IgG and IgM). As to the kind of experiment: ELISA covalent engagement of serum anti-rhamnose antibody. Type of test: binding. To be noted: 2 μM compound, 2% human serum, 48 h; rhamnose 100 mM added after incubation. As for the experimental part: Figure 2 Capacity of Rha-cARMs to specifically covalently engage monoclonal anti-23F and serum anti-rhamnose. A. Chemical structures of the molecules investigated. B. Assessment of covalent vs noncovalent (cARM/ARM) engagement of human serum antirhamnose antibody via an ELISA assay. Each ARM/cARM (2 μM) was incubated with 2% human serum for 48 h and subsequently incubated directly on a streptavidin ELISA plate. Recruitment was evaluated by the addition of anti-IgG or anti-IgM HRP-conjugated secondary antibody with subsequent chromogenic substrate addition. “Comp” represents the addition of competitor rhamnose (500 mM) during 48 h of incubation. “Quench” refers to the addition of competitor rhamnose (100 mM) prior to ELISA plate binding but after 48 h of reaction incubation. C. SDS-PAGE fluorescent image of anti-23F antibody covalently labeled by fluorophore substituted Rha-cARMs (6–8). A representative protein stain associated with each gel is included on the left side of the fluorescent gel images. In all cases, 2 μM anti-23F antibody is incubated with 4 μM cARM (2 equiv) for 24 h in PBS spiked with 10% human serum. Where noted, L-rhamnose (100 mM, Rha. C) was used during incubation as a competitor for specific covalent labeling. Where noted, a free fluoresceine competitor (2.5 mM, Fluor. C) was used to distinguish fluorescein-promoted covalent labeling from rhamnose-promoted. The darker background in gels corresponding to cARM 6, 7 is attributed to the differing capacity of free cARM-fluorophore (fluoroscein vs A647) to be retained in gel, as well as an alternative imaging channel (Cy2 for fluorescein, Cy5 for A647). […] D. Kinetic SDS-PAGE fluorescence imaging experiment to determine Rha-AI-cARM/anti-23F antibody labeling kinetics using A647-cARM (8). cARM 8 (2–100 μM) was incubated with anti-23F antibody (2 μM) for up to 4 h. A representative fluorescence gel image is included corresponding to compound 8 (50 μM) incubated with either anti-23F antibody or isotype human IgG. Densitometry analysis with ImageJ was used to quantify relative band intensities. […] The error is calculated by alternative fits of initial rates data (all within the linear labeling range).
Next, we tested if cARM tool compounds can selectively label endogenous human polyclonal antirhamnose antibodies via ELISA (4 α-O rhamnose or 5 α-S rhamnose) (Figure 2B). cARMs (4, 5) and noncovalent analog ARMs (1, 2) were incubated with 2% human serum for 48 h followed by addition to a streptavidin-ELISA plate. Antibody recruitment to the plate surface was measured via the addition of HRP-conjugated anti-IgG or anti-IgM secondary antibody, followed by a chromogenic substrate. […] In the absence of a competitor, we observed robust absorbance signal in samples incubated with cARM. […]
`C[C@@H]1O[C@@H](OCc2cn(CCc3cn(C(=O)OCCOCCOCCOCCOCCOCCOCCOCCNC(=O)CCCC[C@@H]4SC[C@@H]5NC(=O)N[C@@H]54)cn3)nn2)[C@H](O)[C@H](O)[C@H]1O` [compound 4]: the “antibody binding signal, quench control” value is given as “significant antibody binding signal”.

Consider `C[C@@H]1O[C@@H](SCc2cn(CCOCCNC(=O)OCCOCCOCCOCCOCCOCCOCCOCCNC(=O)CCCC[C@@H]3SC[C@@H]4NC(=O)N[C@@H]43)nn2)[C@H](O)[C@H](O)[C@H]1O` [compound 2], for which the “antibody binding signal, quench control” value is listed as “baseline signal”.

Take `C[C@@H]1O[C@@H](OCc2cn(CCOCCNC(=O)OCCOCCOCCOCCOCCOCCOCCOCCNC(=O)CCCC[C@@H]3SC[C@@H]4NC(=O)N[C@@H]43)nn2)[C@H](O)[C@H](O)[C@H]1O` [compound 1]: the “antibody binding signal, quench control” value is on record as “baseline signal”.
